From the Deep4Chem optical property database

Assay: solvent given as SMILES

c1ccc(/C(=C(\c2ccccc2)c2cc(-c3ccccc3)ccc2-c2ccccc2)c2cc(-c3ccccc3)ccc2-c2ccccc2)cc1
emission maximum (in C1CCOC1): 489 nm

O=[N+]([O-])c1ccc(-c2cn3ccc[n+]3[n-]2)cc1
emission maximum (in ClCCl): 556 nm

C(#Cc1cc(C#Cc2cccs2)c(C#Cc2cccs2)c(C#Cc2cccs2)c1C#Cc1cccs1)c1cccs1
emission maximum (in ClCCl): 425 nm

Cc1ccccc1N(c1ccccc1C)c1ccc2ccc3c(N(c4ccccc4C)c4ccccc4C)ccc4ccc1c2c43
emission maximum (in Cc1ccccc1): 452 nm

N#Cc1ccc(C=C(c2ccccc2)c2ccccc2)cc1
emission maximum (in C1CCOC1): 390 nm

F[B-]1(F)OC(c2ccc(N3CCCC3)cc2)=Cc2cccc[n+]21
emission maximum (in ClC(Cl)Cl): 496 nm

O=C1c2ccccc2C2=Cc3ccc4ccccc4[n+]3[B-](F)(F)N12
emission maximum (in CCO): 465 nm
emission maximum (in Cc1ccccc1): 474 nm
emission maximum (in ClCCl): 464 nm

N#Cc1c(-n2c3ccc(Br)cc3c3cc(Br)ccc32)c(C#N)c(-n2c3ccc(Br)cc3c3cc(Br)ccc32)c(-n2c3ccc(Br)cc3c3cc(Br)ccc32)c1-n1c2ccc(Br)cc2c2cc(Br)ccc21
emission maximum (in Cc1ccccc1): 521 nm

CCCCC(CC)COc1ccc2nc(-c3ccc(-c4ccccc4)s3)sc2c1 (centres undefined)
emission maximum (in ClCCl): 423 nm

Oc1cccc2ccccc12
emission maximum (in C1CCCCC1): 344.23 nm

CC(=O)c1c(N[C@@H](CC(C)C)C(=O)O)c2ccc(N(C)C)cc2oc1=O
emission maximum (in ClCCl): 446 nm

CCN(CC)c1ccc2cc(-c3cc(SC)c(C#N)c(=O)o3)c(=O)oc2c1
emission maximum (in C1CCOC1): 558 nm
emission maximum (in CC#N): 578 nm
emission maximum (in CC(C)=O): 573 nm
emission maximum (in CCOC(C)=O): 554 nm
emission maximum (in CN(C)C=O): 585 nm
emission maximum (in CO): 582 nm
emission maximum (in CS(C)=O): 593 nm
emission maximum (in Cc1ccccc1): 533 nm
emission maximum (in ClC(Cl)Cl): 547 nm
emission maximum (in ClCCl): 560 nm

Cc1cc2c(o1)=CC1=Cc3cc4oc(C)cc4n3[B-](F)(F)[N+]=21
emission maximum (in ClC(Cl)Cl): 583 nm

COc1cc(-c2cnc(-c3ccncc3)o2)cc(OC)c1OC
emission maximum (in ClCCl): 465 nm

O=C(c1ccc(N2c3ccccc3Sc3ccccc32)cc1)c1ccc2sc3ccccc3c2c1
emission maximum (in C1CCOC1): 604 nm
emission maximum (in c1ccc2c(c1)c1ccccc1n2-c1ccc(-c2ccc(-n3c4ccccc4c4ccccc43)cc2)cc1): 524 nm

COc1ccc(-c2cc3c(s2)-c2sc(-c4ccc(OC)cc4)cc2P(c2ccccc2)(c2ccccc2)=[O+][B-]3(c2c(C)cc(C)cc2C)c2c(C)cc(C)cc2C)cc1
emission maximum (in C1CCOC1): 513 nm

O=C1Nc2ccccc2/C1=C/C(=O)c1ccc(Cl)cc1
emission maximum (in C1CCCCC1): 382 nm
emission maximum (in C1COCCO1): 394 nm
emission maximum (in CC#N): 398 nm
emission maximum (in CC(C)(C)O): 405 nm
emission maximum (in CC(C)O): 404 nm
emission maximum (in CCCCCC): 382 nm
emission maximum (in CCCCO): 405 nm
emission maximum (in CCOC(C)=O): 395 nm
emission maximum (in CN(C)C=O): 398 nm
emission maximum (in CO): 406 nm
emission maximum (in ClCCl): 394 nm
emission maximum (in O): 410 nm

Cc1cc(C)c(-c2c3ccccc3c3ccc4cc5c(-c6c(C)cc(C)cc6C)c6ccccc6c6ccc7cc2c3c4c7c56)c(C)c1
emission maximum (in ClCCl): 617 nm

CCN(CC)c1ccc([N+]2=Cc3ccc4c5c(ccc4c3O[B-]2(c2c(F)c(F)c(F)c(F)c2F)c2c(F)c(F)c(F)c(F)c2F)C=[N+](c2ccc(N(CC)CC)cc2)[B-](c2c(F)c(F)c(F)c(F)c2F)(c2c(F)c(F)c(F)c(F)c2F)O5)cc1
emission maximum (in C1CCOC1): 714 nm
emission maximum (in Cc1ccccc1): 644 nm
emission maximum (in ClCCl): 683 nm

c1ccc(-c2c3ccccc3c(-c3cncnc3)c3ccccc23)cc1
emission maximum (in CCO): 441 nm
emission maximum (in ClCCl): 414 nm

Cc1ccc(N(c2ccc(C)cc2)c2ccc(-c3ccc(C=C(C#N)C#N)s3)cc2)cc1
emission maximum (in ClC(Cl)Cl): 670 nm

COc1c2ccccc2c(-c2ccccc2)c2ccccc12
emission maximum (in C1COCCO1): 424 nm
emission maximum (in CCCCCC): 420 nm
emission maximum (in CCCCCCC): 420 nm
emission maximum (in CCCCO): 426 nm
emission maximum (in CCO): 426 nm
emission maximum (in CN(C)C=O): 426 nm
emission maximum (in Cc1ccccc1): 419 nm
emission maximum (in ClC(Cl)(Cl)Cl): 426 nm
emission maximum (in ClC(Cl)Cl): 426 nm
emission maximum (in ClCCl): 426 nm
emission maximum (in OCC(O)CO): 426 nm
emission maximum (in OCCO): 426 nm

CC(C)c1cc(C(C)C)c(B2c3cc(-n4c5ccccc5c5ccccc54)ccc3N(c3ccccc3)c3ccc(-n4c5ccccc5c5ccccc54)cc32)c(C(C)C)c1
emission maximum (in C1CCOC1): 442.52 nm
emission maximum (in CCOC(C)=O): 442.52 nm
emission maximum (in Cc1ccccc1): 442.52 nm
emission maximum (in ClCCl): 442.52 nm
emission maximum (in c1cc(-c2cccc(-n3c4ccccc4c4ccccc43)c2)cc(-n2c3ccccc3c3ccccc32)c1): 452 nm

CN(C)c1ccc(/C=C/c2cc[n+](C)c3ccccc23)cc1
emission maximum (in CC#N): 703 nm
emission maximum (in ClCCl): 680 nm
emission maximum (in O): 698 nm

F[B-]1(F)n2c(cc(Br)c2Br)C(c2ccccc2)=C2C=C(Br)C(c3ccc[nH]3)=[N+]21
emission maximum (in ClC(Cl)Cl): 642 nm

CCOC(=O)CN1C(=O)C2=C(c3ccc(C#N)cc3)N(CC(=O)OCC)C(=O)C2=C1c1ccccc1
emission maximum (in CC#N): 538 nm
emission maximum (in CS(C)=O): 547 nm
emission maximum (in Cc1ccccc1): 544 nm

O=C1CC(=O)Nc2cc([N+](=O)[O-])ccc2N1
emission maximum (in CS(C)=O): 403 nm

C=CCOc1nnc(OCCC(F)(F)C(F)(F)C(F)(F)C(F)(F)C(F)(F)C(F)(F)C(F)(F)C(F)(F)F)nn1
emission maximum (in ClCCl): 572 nm
emission maximum (in OCC(F)(F)F): 560 nm
